pIC50: −log10 of the molar value.
What follows are compounds tested against T1, human recombinant PDE9 enzyme (Homo sapiens, UniProt O76083) (assay: Phosphodiesterase 9 (PDE9) inhibitory activity, Scintillation Proximity (SPA) assay). Details: human recombinant PDE9 from SF-9 cells; 50 nM [3H]cGMP; room temperature, 30 min; Examples 3-114; read-out: G5678A (U): IC50.
T1 construct: made in house; host or cells: SF-9 insect cells
Assay type: biochemical
How it was run: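 Scintillation proximity read-out of [3H]cGMP hydrolysis after 30 min at room temperature, with enzyme addition starting the reaction. The enzyme was human recombinant PDE9 expressed in SF-9 cells, titrated to keep substrate turnover at 20% or less. Compound wells held 2% DMSO final, and background was defined with excess PDE inhibitor.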

T1 sequence (O76083 whole entry): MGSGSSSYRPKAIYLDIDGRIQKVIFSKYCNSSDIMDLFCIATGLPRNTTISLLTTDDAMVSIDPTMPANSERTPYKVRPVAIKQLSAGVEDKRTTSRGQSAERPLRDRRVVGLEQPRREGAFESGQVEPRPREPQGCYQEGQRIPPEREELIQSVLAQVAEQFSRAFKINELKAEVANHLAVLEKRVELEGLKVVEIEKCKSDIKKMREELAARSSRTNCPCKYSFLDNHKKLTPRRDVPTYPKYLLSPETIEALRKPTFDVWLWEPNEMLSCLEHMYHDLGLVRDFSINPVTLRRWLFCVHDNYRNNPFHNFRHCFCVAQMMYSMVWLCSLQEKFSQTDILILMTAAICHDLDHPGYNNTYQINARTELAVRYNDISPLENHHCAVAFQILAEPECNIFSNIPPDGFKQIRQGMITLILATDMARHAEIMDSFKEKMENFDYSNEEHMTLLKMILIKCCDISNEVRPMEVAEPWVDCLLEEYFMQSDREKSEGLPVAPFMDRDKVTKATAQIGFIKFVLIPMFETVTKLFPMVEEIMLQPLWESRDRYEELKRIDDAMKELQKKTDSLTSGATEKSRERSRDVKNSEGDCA

pIC50 | SMILES
8.13 | CC[C@@H]1CN(Cc2cnc(C)nc2)C[C@H]1c1nc2c(cnn2C(C)C)c(=O)[nH]1 (relative stereo) [Example 59, 6-{(3,4-trans)-4-ethyl-1-[(2-methylpyrimidin-5-yl)methyl]pyrrolidin-3-yl}-1-isopropyl-1,5-dihydro-4H-pyrazolo[3,4-d]pyrimidin-4-one]
6.06 | C[C@@H]1CN(Cc2ccccc2)C[C@H]1c1nc2c(cnn2CC(F)(F)F)c(=O)[nH]1 (relative stereo) [Example 64]

Same assay, conditions: human recombinant PDE9 from SF-9 cells; 50 nM [3H]cGMP; room temperature, 30 min; additional compounds Ex. 115-228; read-out: G5678A (U):IC50

pIC50 | SMILES
7.28 | C[C@@H]1CN(CCOCc2ccccc2)C[C@H]1c1nc2c(cnn2C2CCCC2)c(=O)[nH]1 (racemic) [Example 209, 6-{(3,4-trans)-1-[2-(benzyloxy)ethyl]-4-methylpyrrolidin-3-yl}-1-cyclopentyl-1,5-dihydro-4H-pyrazolo[3,4-d]pyrimidin-4-one]
7.79 | C[C@@H]1CN(Cc2c(F)cccc2F)C[C@H]1c1nc2c(cnn2C2CCCC2)c(=O)[nH]1 (racemic) [Example 210, 1-cyclopentyl-6-[(3,4-trans)-1-(2,6-diflurobenzyl)-4-methylpyrrolidin-3-yl]-1,5-dihydro-4H-pyrazolo[3,4-d]pyrimidin-4-one]
7.40 | COc1ccccc1CN1C[C@@H](C)[C@H](c2nc3c(cnn3C3CCCC3)c(=O)[nH]2)C1 (racemic) [Example 211, 1-cyclopentyl-6-[(3,4-trans)-1-(2-methoxybenzyl)-4-methylpyrrolidin-3-yl]-1,5-dihydro-4H-pyrazolo[3,4-d]pyrimidin-4-one]
8.00 | Cc1nc(C)c(CN2C[C@@H](C)[C@H](c3nc4c(cnn4C4CCCC4)c(=O)[nH]3)C2)nc1C (racemic) [Example 212, 1-cyclopentyl-6-{(3,4-trans)-4-methyl-1-[(3,5,6-trimethylpyrazin-2-yl)methyl]pyrrolidin-3-yl}-1,5-dihydro-4H-pyrazolo[3,4-d]pyrimidin-4-one]
6.91 | C[C@@H]1CN(Cc2ccc(Cl)cc2Cl)C[C@H]1c1nc2c(cnn2C2CCCC2)c(=O)[nH]1 (racemic) [Example 213, 1-cyclopentyl-6-[(3,4-trans)-1-(2,4-dichlorobenzyl)-4-methylpyrrolidin-3-yl]-1,5-dihydro-4H-pyrazolo[3,4-d]pyrimidin-4-one]
7.80 | C[C@@H]1CN(Cc2cnn3c2CCCCC3)C[C@H]1c1nc2c(cnn2C2CCCC2)c(=O)[nH]1 (racemic) [Example 214, 1-cyclopentyl-6-[(3,4-trans)-4-methyl-1-(5,6,7,8-tetrahydro-4H-pyrazolo[1,5-a]azepin-3-ylmethyl)pyrrolidin-3-yl]-1,5-dihydro-4H-pyrazolo[3,4-d]pyrimidin-4-one]
7.94 | C[C@@H]1CN(Cc2cccc(F)c2)C[C@H]1c1nc2c(cnn2C2CCCC2)c(=O)[nH]1 (racemic) [Example 215, 1-cyclopentyl-6-[(3,4-trans)-1-(3-fluorobenzyl)-4-methylpyrrolidin-3-yl]-1,5-dihydro-4H-pyrazolo[3,4-d]pyrimidin-4-one]
7.76 | C[C@@H]1CN(Cc2ccc3c(c2)CCO3)C[C@H]1c1nc2c(cnn2C2CCCC2)c(=O)[nH]1 (racemic) [Example 216, 1-cyclopentyl-6-[(3,4-trans)-1-(2,3-dihydro-1-benzofuran-5-ylmethyl)-4-methylpyrrolidin-3-yl]-1,5-dihydro-4H-pyrazolo[3,4-d]pyrimidin-4-one]
7.60 | COc1ccc(C)cc1CN1C[C@@H](C)[C@H](c2nc3c(cnn3C3CCCC3)c(=O)[nH]2)C1 (racemic) [Example 217, 1-cyclopentyl-6-[(3,4-trans)-1-(2-methoxy-5-methylbenzyl)-4-methylpyrrolidin-3-yl]-1,5-dihydro-4H-pyrazolo[3,4-d]pyrimidin-4-one]
7.81 | C[C@@H]1CN(Cc2ccccc2F)C[C@H]1c1nc2c(cnn2C2CCCC2)c(=O)[nH]1 (racemic) [Example 218, 1-cyclopentyl-6-[(3,4-trans)-1-(2-fluorobenzyl)-4-methylpyrrolidin-3-yl]-1,5-dihydro-4H-pyrazolo[3,4-d]pyrimidin-4-one]
7.32 | C[C@@H]1CN(Cc2ccccc2Cl)C[C@H]1c1nc2c(cnn2C2CCCC2)c(=O)[nH]1 (racemic) [Example 219, 6-[(3,4-trans)-1-(2-chlorobenzyl)-4-methylpyrrolidin-3-yl]-1-cyclopentyl-1,5-dihydro-4H-pyrazolo[3,4-d]pyrimidin-4-one]
7.55 | C[C@@H]1CN(Cc2ccc(Cl)c(Cl)c2)C[C@H]1c1nc2c(cnn2C2CCCC2)c(=O)[nH]1 (racemic) [Example 220, 1-cyclopentyl-6-[(3,4-trans)-1-(3,4-dichlorobenzyl)-4-methylpyrrolidin-3-yl]-1,5-dihydro-4H-pyrazolo[3,4-d]pyrimidin-4-one]
7.90 | C[C@@H]1CN(Cc2cccc3nsnc23)C[C@H]1c1nc2c(cnn2C2CCCC2)c(=O)[nH]1 (racemic) [Example 221, 6-[(3,4-trans)-1-(2,1,3-benzothiadiazol-4-ylmethyl)-4-methylpyrrolidin-3-yl]-1-cyclopentyl-1,5-dihydro-4H-pyrazolo[3,4-d]pyrimidin-4-one]
8.22 | CCCc1ncc(CN2C[C@@H](C)[C@H](c3nc4c(cnn4C4CCCC4)c(=O)[nH]3)C2)cn1 (racemic) [Example 222, 1-cyclopentyl-6-{(3,4-trans)-4-methyl-1-[(2-propylpyrimidin-5-yl)methyl]pyrrolidin-3-yl}-1,5-dihydro-4H-pyrazolo[3,4-d]pyrimidin-4-one]
7.84 | CCn1nccc1CN1C[C@@H](C)[C@H](c2nc3c(cnn3C3CCCC3)c(=O)[nH]2)C1 (racemic) [Example 223, 1-cyclopentyl-6-{(3,4-trans)-1-[(1-ethyl-1H-pyrazol-5-yl)methyl]-4-methylpyrrolidin-3-yl}-1,5-dihydro-4H-pyrazolo[3,4-d]pyrimidin-4-one]
6.94 | C[C@@H]1CN(Cc2ccccc2OC(F)(F)F)C[C@H]1c1nc2c(cnn2C2CCCC2)c(=O)[nH]1 (racemic) [Example 224, 1-cyclopentyl-6-{(3,4-trans)-4-methyl-1-[2-(trifluoromethoxy)benzyl]pyrrolidin-3-yl}-1,5-dihydro-4H-pyrazolo[3,4-d]pyrimidin-4-one]
7.46 | C[C@@H]1CN(Cc2ccc(C(F)(F)F)cc2)C[C@H]1c1nc2c(cnn2C2CCCC2)c(=O)[nH]1 (racemic) [Example 225]
8.42 | C[C@@H]1CN(Cc2nc3cnccc3n2C)C[C@H]1c1nc2c(cnn2C2CCCC2)c(=O)[nH]1 (racemic) [Example 226, 1-cyclopentyl-6-{(3,4-trans)-4-methyl-1-[(1-methyl-1H-imidazo[4,5-c]pyridin-2-yl)methyl]pyrrolidin-3-yl}-1,5-dihydro-4H-pyrazolo[3,4-d]pyrimidin-4-one]
8.13 | C[C@@H]1CN(Cc2cc(F)cc(F)c2)C[C@H]1c1nc2c(cnn2C2CCCC2)c(=O)[nH]1 (racemic) [Example 227, 1-cyclopentyl-6-[(3,4-trans)-1-(3,5-difluorobenzyl)-4-methylpyrrolidin-3-yl]-1,5-dihydro-4H-pyrazolo[3,4-d]pyrimidin-4-one]
7.31 | C[C@@H]1CN(Cc2cnn3c2CCC3)C[C@H]1c1nc2c(cnn2C2CCCC2)c(=O)[nH]1 (racemic) [Example 228, 1-cyclopentyl-6-[(3,4-trans)-1-(5,6-dihydro-4H-pyrrolo[1,2-b]pyrazol-3-ylmethyl)-4-methylpyrrolidin-3-yl]-1,5-dihydro-4H-pyrazolo[3,4-d]pyrimidin-4-one]

From US7964607B2, “Pyrazolo[3,4-d]pyrimidine compounds” (Pfizer Inc., priority 2007, dated 2011)
